Assay results: article PMC509409, “Recognition and Accommodation at the Androgen Receptor Coactivator Binding Interface” (PLoS Biology, 2004)
Where a SMILES comes first, the peptide text is derived from it. The star is where a group is joined. Biotin = O=C1N[C@H]2[C@H](CS[C@H]2CCCCC(=O)*)N1

Columns and labels:
AR LBD [1] = target: T1, AR LBD (Pan troglodytes, UniProt O97775); experiment: X-ray crystal structures of AR LBD-peptide complexes, buried surface area; assay type: chimp (100% identity to the human form in protein sequence); details: calculated with CNS from crystal structure; for Buried surface area, +1: +1 residue; for Buried surface area, +1 / Buried surface area, +4 / Buried surface area, +5: side chain atoms only; for Buried surface area, +4: +4 residue; for Buried surface area, +5: +5 residue; for Buried surface area, Total: AR LBD-peptide complex, DHT-bound
T1 construct: chimp AR LBD (residues 663–919—human numbering); GST (N, cleaved yes); made in house; host or cells: E. coli BL21 (DE3) STAR
T1 sequence (O97775 655-911 limits assumed): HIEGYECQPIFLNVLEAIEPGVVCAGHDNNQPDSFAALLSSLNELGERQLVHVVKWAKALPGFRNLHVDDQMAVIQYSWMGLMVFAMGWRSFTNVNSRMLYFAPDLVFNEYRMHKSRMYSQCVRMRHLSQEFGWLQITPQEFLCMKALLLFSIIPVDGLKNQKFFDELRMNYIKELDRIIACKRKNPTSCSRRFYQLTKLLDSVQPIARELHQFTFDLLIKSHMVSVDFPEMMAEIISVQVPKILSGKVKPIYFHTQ
Experimental: (§1) Expression and purification of the AR LBD for crystallization were performed essentially as described ([Matias et al. 2000]). […] Induction was carried out with 30 μM IPTG at 17 °C for 16–18 h. E. coli cells were lysed in buffer (10 mM Tris, [pH 8.0], 150 mM NaCl, 10% glycerol, 1 mM TCEP, 0.2 mM PMSF) supplemented with 0.5 μg/ml lysozyme, 5 U/ml benzonase, 0.5% CHAPS, and 10 μM DHT. All buffers for further purification steps contained 1 μM DHT. Soluble cell lysate was adsorbed to Glutathione Sepharose 4 Fast Flow resin (Amersham Biosciences), washed with buffer containing 0.1% n-octyl β-glucoside, and eluted with 15 mM glutathione. After cleavage of the GST moiety with thrombin, final purification of the AR LBD was carried out using a HiTrap SP cation exchange column (Amersham Biosciences). Eluted AR LBD was dialyzed overnight at 4 °C against buffer containing 50 mM HEPES (pH 7.2), 10% glycerol, 0.2 mM TCEP, 20 μM DHT, 150 mM Li2SO4, and 0.1% n-octyl β-glucoside, then concentrated to greater than 4 mg/ml for crystallization.
Purified, concentrated AR LBD was combined with 3x to 6x molar excess of peptide and incubated 1 h at room temperature before crystallization trials. Complexes were crystallized using the hanging drop vapor diffusion method. Protein–peptide solution was combined in a 1:1 ratio with a well solution consisting of 0.6–0.8 M sodium citrate and 100 mM Tris or HEPES buffer (pH 7–8). Crystals typically appeared after 1–2 d, with maximal size attained within 2 wk. For data collection, crystals were swiped into a cryo-protectant solution consisting of well solution plus 10% glycerol before flash freezing in liquid nitrogen. The addition of ethylene glycol to a well concentration of 10%–20% was later found to both improve crystal quality and enable the freezing of crystals directly out of the drop.
Datasets were collected at 100K at the Advanced Light Source (Lawrence Berkeley Laboratory, Berkeley, California, United States), beamline 8.3.1, with either a ADSC Quantum 315 or Quantum 210 CCD detector. Data were processed using Denzo and Scalepack ([Otwinowski and Minor 1997]). Molecular replacement searches were performed with rotation and translation functions from CNS ([Brunger et al. 1998]). Initial searches for AR–FxxLF were performed using the structure of AR–R1881 (PDB: 1E3G) with R1881 omitted from the search model. Subsequent searches for all other complexes were performed using the refined LBD structure from the AR–FxxLF complex. To minimize the possibility of model bias, FxxLF peptide and DHT were omitted from all molecular replacement searches. Protein models were built by iterative rounds of simulated annealing, conjugate gradient minimization, and individual B-factor refinement in CNS followed by manual rebuilding in Quanta 2000 (Accelrys, San Diego, California, United States) using σA-weighted 2F o − F c, F o − F c, and simulated annealing composite omit maps. Superposition of structures was performed with LSQMAN ([Kleywegt 1996]). Buried surface area calculations were performed with CNS. All figures were generated with PyMOL ([DeLano 2002]). Coordinates and structure factors for all complexes have been deposited in the Protein Data Bank.

AR LBD [2] = target: T1, AR LBD; experiment: Surface plasmon resonance (Biacore 2000), peptide binding to AR LBD; assay type: chimp (100% identity to the human form in protein sequence); details: for ka1 × 10^-4: association rate, biotinylated peptide immobilised (approx. 250 RU), AR LBD 10, 5, 1 μM and 300 nM, SMRT2 signal subtracted, values are ka1 multiplied by 10^-4; for ka1 × 10^-4 / kd1 × 10^2: step 1 of two-state conformational change model; for ka1 × 10^-4 / Kd2 / kd1 × 10^2 / ka2 × 10^3 / kd2 × 10^3: HBS-P pH 7.4; for Kd2: dissociation constant of step 2, calculated from rate constants, two-state conformational change model; for kd1 × 10^2: dissociation rate, values are kd1 multiplied by 10^2; for ka2 × 10^3: forward rate, values are ka2 multiplied by 10^3; for ka2 × 10^3 / kd2 × 10^3: step 2 of two-state conformational change model; for kd2 × 10^3: reverse rate, values are kd2 multiplied by 10^3
Experimental: as §1
Affinities of peptides to the AR LBD were determined with a Biacore (Piscataway, New Jersey, United States) 2000 instrument. A peptide derived from silencing mediator for RXR and TR 2 (SMRT2) served as a negative control. 1 mM peptide stock solutions in DMSO were diluted into HBS-P buffer (10 mM HEPES [pH 7.4], 150 mM NaCl, 0.005% Surfactant P20) to generate 10 μM working solutions. HBS-P buffer was flowed through the cells to achieve a stable baseline prior to immobilization of the biotinylated peptides. To achieve the binding of approximately 250 RU of peptides to individual cells, working solutions of peptides were diluted to 100 nM in HBS-P buffer. Unbound streptavidin sites were blocked by injection of a 1 mM biotin solution at a rate of 10 μl/min.
Purified AR LBD was diluted into HBS-P buffer to a concentration of 10 μM and injected into all four Flowcells using the Kinject protocol at a flow rate of 10 μl/min (contact time 360 s, dissociation time 360 s). Following the dissociation phase, the surface of the chip was regenerated to remove residual AR LBD by QuickInject of buffer containing 10 mM HEPES and 50% ethylene glycol (pH 11). Following the establishment of a stable baseline, the same procedure was repeated using a series of AR LBD dilutions (5 μM, 1 μM, and 300 nM) in an iterative manner. Analysis of the data was performed using BIAevaluation 3.0 software (Biacore). The SMRT2 signals were subtracted as background from the three remaining peptide signals. Data were best fit using the two-state conformational change model ([Warnmark et al. 2001], [2002]).

AR LBD [3] = target: T1, AR LBD; experiment: FRET-based assay of interaction between synthetic peptide and purified AR LBD; assay type: binding, chimp (100% identity to the human form in protein sequence); details: in vitro; excitation 320 nm, emission 625 and 665 nm; streptavidin-cryptate / streptavidin-XL665; unpublished data
Experimental: Synthetic peptides corresponding to the deduced amino acid sequences from receptor-specific phage were tested for their ability to interact with purified AR LBD using a FRET–based assay format. […] Flourophor conjugates were prepared by incubating either biotinylated peptides with streptavidin-cryptate (Cis Bio International, Bagnols Sur Ceze Cedex, France), or biotinylated AR LBD with streptavidin-XL665 (Cis Bio). Interaction between peptide and AR LBD was monitored by the ratio of energy transfer by excitation at 320 nm and emission at 625 nm and 665 nm.

| SMILES | Buried surface area, +1 (AR LBD [1]) [Å^2] | Buried surface area, +4 (AR LBD [1]) [Å^2] | Buried surface area, +5 (AR LBD [1]) [Å^2] | Buried surface area, Total (AR LBD [1]) [Å^2] | ka1 × 10^-4 (AR LBD [2]) [M^-2s^-1] | Kd2 (AR LBD [2]) | kd1 × 10^2 (AR LBD [2]) [M^-1s^-1] | ka2 × 10^3 (AR LBD [2]) [M^--1s^-1] | kd2 × 10^3 (AR LBD [2]) [M^-1s^-1] | affinity relative to FxxLF (AR LBD [2]; comparison with FxxLF) | binding to AR in FRET-based screens (AR LBD [3]) | affinity for AR (AR LBD [2]) | fold weaker affinity than FxxLF (AR LBD [2]; Kd ratio relative to FxxLF) | affinity relative to tightest binding p160-derived LxxLL motif, NR box 3 of TIF2 (AR LBD [2]; compared with earlier value for TIF2 NR box 3 (He and Wilson 2003)) |
| --- | --- | --- | --- | --- | --- | --- | --- | --- | --- | --- | --- | --- | --- | --- |
| CC(C)C[C@H](NC(=O)[C@H](CO)NC(=O)[C@H](CCC(=O)O)NC(=O)[C@H](Cc1ccccc1)NC(=O)[C@H](CCCNC(=N)N)NC(=O)[C@H](CO)NC(=O)[C@@H](N)CO)C(=O)N[C@@H](Cc1ccccc1)C(=O)N[C@@H](C)C(=O)NCC(=O)N[C@@H](CCC(=O)O)C(=O)N[C@@H](CCCCN)C(=O)N[C@@H](CCC(=O)O)C(=O)N[C@@H](CO)C(=O)N[C@@H](CCCNC(=N)N)C(=O)N[C@@H](CO)C(=O)NCC(=O)N[C@@H](CO)C(=O)NCC(=O)N[C@@H](CCCCNC(=O)CCCC[C@@H]1SC[C@@H]2NC(=O)N[C@@H]21)C(=O)O [FxxLF] (H-SSRFESLFAGEKESRSGSGK(Biotin)-OH; N-terminus and C-terminus assumed) | 305 | 189 | 276 | 1012 | 5.2±1.0 | 2.6±1.0 | 2.3±0.03 | 1.3±0.5 | 3.5±0.06 | – | – | – | – | – |
| CC(C)C[C@H](NC(=O)[C@H](C)NC(=O)[C@H](C)NC(=O)[C@H](Cc1ccccc1)NC(=O)[C@H](CCCCN)NC(=O)[C@H](CO)NC(=O)[C@@H](N)CO)C(=O)N[C@@H](Cc1c[nH]c2ccccc12)C(=O)N[C@@H](CC(=O)O)C(=O)N1CCC[C@H]1C(=O)N1CCC[C@H]1C(=O)N[C@@H](CCCCN)C(=O)N[C@@H](CC(C)C)C(=O)N[C@@H](CO)C(=O)N[C@@H](CCCNC(=N)N)C(=O)N[C@@H](CO)C(=O)NCC(=O)N[C@@H](CO)C(=O)NCC(=O)N[C@@H](CCCCNC(=O)CCCC[C@@H]1SC[C@@H]2NC(=O)N[C@@H]21)C(=O)O [FxxLW] (H-SSKFAALWDPPKLSRSGSGK(Biotin)-OH; N-terminus and C-terminus assumed) | 315 | 187 | 313 | 937 | 5.9±1.5 | 1.6±0.2 | 3.4±0.04 | 3.6±0.3 | 5.6±0.05 | slightly better than FxxLF | – | – | – | – |
| CC(C)C[C@H](NC(=O)CNC(=O)[C@H](CCCNC(=N)N)NC(=O)[C@H](CO)NC(=O)[C@@H](N)CO)C(=O)N[C@@H](CC(C)C)C(=O)N[C@@H](Cc1c[nH]c2ccccc12)C(=O)N[C@@H](CC(=O)O)C(=O)N[C@@H](CC(C)C)C(=O)N[C@@H](CC(C)C)C(=O)N[C@H](C(=O)N[C@@H](CCCCN)C(=O)N[C@@H](CC(=O)O)C(=O)N[C@@H](CO)C(=O)N[C@@H](CCCNC(=N)N)C(=O)N[C@@H](CO)C(=O)NCC(=O)N[C@@H](CO)C(=O)NCC(=O)N[C@@H](CCCCNC(=O)CCCC[C@@H]1SC[C@@H]2NC(=O)N[C@@H]21)C(=O)O)[C@@H](C)O [LxxLL] (H-SSRGLLWDLLTKDSRSGSGK(Biotin)-OH; N-terminus and C-terminus assumed) | 271 | 193 | 241 | 984 | 6.2±4.3 | 1.6±0.2 | 7.0±0.17 | 3.2±0.4 | 5.0±0.04 | – | demonstrated to bind AR in FRET-based screens in vitro | moderate affinity | less than 2 -fold | more than three times stronger |
